Here are results for 1 compound from publication PMC6468747 (Cancers, 2019).

Series [1] can be described thus: Plasma pharmacokinetics after single IV and PO dosing. The format is in vivo, female CD1 mice. The conditions noted are these: female, CD-1, mouse, plasma; for AUC(0-inf): read-out: AUC(0-inf). The method, then:
5. In vivo Pharmacokinetics (PK) Determination: These studies were Performed by Charles River Laboratories (CRL), Discovery Services, 251 Ballardvale Street, Wilmington, MA 01887, USA.
The PK studies were performed according to the guidelines and approval of CRL Institutional Animal Care and Use Committee (IACUC) under IACUC approval no: P04172013.
A total of sixty‐four naïve female CD‐1 mice (including 6 spare animals) were received from Charles River Laboratories, Kingston, NY. Following an acclimation period, the animals were assigned to the study based on acceptable health as determined by a staff veterinarian. For dosing, animals were placed into six groups as detailed in the study design table below. All animals were fasted overnight prior to dosing and food was returned after the 4‐h post‐dose blood collections.
Each animal in Groups 1, 3 and 5 received a single administration of prepared test article by intravenous tail administration at a target dose level of 2 mg/kg and dose volume of 10 mL/kg. Each animal in Groups 2, 4 and 6 received a single administration of prepared test article by oral gavage at a target dose level of 20 mg/kg and at a dose volume of 10 mL/kg. Dosing was performed on August 13, 2015 as detailed in the study protocol and was completed without incident. Dose administration […]
Following dosing and at each sample collection time
Group Mices Test Compound Level Conc. Volume Dose Vehicle Route […]
Interim blood samples were collected in a leapfrog design from each animal by puncture of a submandibular vein and a terminal blood sample was collected from each animal by intracardiac puncture following euthanasia with CO2 as outlined in the sample collection table below.
All blood samples were transferred into tubes containing K2EDTA anticoagulant and placed on wet ice immediately after collection until centrifuged at 2200 × g for 10 min at […] to isolate plasma.
The resulting plasma was transferred to individual polypropylene tubes in a 96‐well plate format and immediately placed on dry ice until storage at nominally […] before transfer to the Test Facility’s bioanalysis group for concentration and HPLC analysis. Individual blood collection times are […]
Table S4. Sample Collections.
Collection Information Whole Blood for Plasma Whole Blood for Plasma
Subgroup A (n = 3) 5 min & 1 h post‐dose 8 h post‐dose
Subgroup B (n = 3) 15 min & 4 h post‐dose 12 h post‐dose
Subgroup C (n = 3) 30 min & 6 h post‐dose 24 h post‐dose
Subgroup D (n = 2) Not applicable 2 h post‐dose
Subgroup A (n = 3) 15 min & 2 h post‐dose 8 h post‐dose
Subgroup B (n = 3) 30 min & 4 h post‐dose 12 h post‐dose
Subgroup C (n = 3) 1 hr & 6 h post‐dose 24 h post‐dose
Collection conditions K2EDTA K2EDTA
Collection route Submandibular Intracardiac puncture
Volume/Time point 100 μL Maximum volume
The plasma samples for Groups 1‐6, Subgroups A‐C were analyzed for test article concentration using a Research Grade LC MS/MS Assay (RGA‐Level 1). The bioanalytical report, including plasma […]
Pharmacokinetic parameters were estimated from the plasma concentration‐time data using standard non‐compartmental methods and utilizing suitable analysis software (Watson 7.2 Bioanalytical LIMS, Thermo Electron Corp). Parameters were estimated using nominal sampling times relative to the start of each dose administration (within an acceptable tolerance limit).
Concentrations below the limit of quantification were excluded from the pharmacokinetic analysis.
The area under the plasma test item concentration versus time curve (AUC) was calculated using the linear‐log‐linear trapezoidal method. When practical, the terminal elimination phase of each concentration versus time curve was identified using at least the final three observed concentration values. The slope of the terminal elimination phase was determined using log linear regression on the unweighted concentration data.
Parameter Description of Parameter […]

The next series has as its system MDA-MB-231-Luc cells. Description: Experimental lung metastasis assay. The note with it: 20 mg/kg IP, 2 weeks, IVIS luciferase signal in lung. It is filed as in vivo, SCID mice. As to the method: The MDA-MB-231-luc cells were the kind gift of Dr. Stuart Martin (UMB). Cells were grown in DMEM with 10% FBS, hygromycin and G418 to subconfluence (~50–70%) and then trypsinized, washed, and resuspended in PBS. 1 × 10^6 cells were injected IV in a volume of 100 µL. Mice were treated for 14 days with vehicle or VNLG-152 by IP injection at doses of 20 mg/kg. The luciferase signals in the mice were detected and photographed using an IVIS in vivo image system on days 0, 1 and 14 [81].

A further series deals with MDA-MB-231 cells. Nature of the series: Multiplex Luminex supernatant cytokine analysis. It is filed as cell-based, human. The note with it: 72 h, cell supernatants. As to the method:
Supernatants from the MDA-MB-231 (TNBC) cells in Fetal Bovine Serum (FBS) containing media were treated with various concentrations of VNLG-12R for 72 h, were collected, and various cytokines and growth factor concentrations (CLCX-1, IL-6, IL8 and TNF-α) were determined by Luminex multiplex assay kit (Millipore, Billerica, MA, USA) according to the manufacturer’s instructions. The expressions of secreted cytokines were read on Luminex 100 reader. The data was then analyzed using the BioPlex Software (BioRad, Hercules, CA, USA). The Luminex multiplex assays were conducted at the University of Maryland School of Medicine Cytokine Core Laboratory (Baltimore, MD, USA).

Like-named read-outs stand apart in the source and are kept apart here.

The half-life is the time in which the quantity being followed falls by half. A lower half-life goes with rapid decline. For orientation: AUC(0-inf) means total exposure, with the tail of the curve extrapolated. The term Cmax denotes the highest concentration seen after dosing. In the case of `CC1=C(/C=C/C(C)=C/C=C/C(C)=C/C(=O)Nc2ccc(F)cc2)C(C)(C)CCC1n1ccnc1` (racemic) [VNLG-152R, 4-(±)-(1H-imidazol-1-yl)-N-(4-fluorophenyl)-(E)-retinamide], in series [1] (PO 20 mg/kg vs IV 2 mg/kg, read-out: F (%) oral bioavailability), the bioavailability is 121%. Further, in series [1] (IV, 2 mg/kg), the half-life is 1.92 h and the AUC(0-inf) is 1130 ng·h/mL. Also, in series [1] (PO, 20 mg/kg), the half-life was 9.25 h and the area under the curve AUC(0-inf) is 13700 ng·h/mL. The Cmax in series [1] (PO, 20 mg/kg, read-out: Cmax) stood at 3750 ng/mL. Moreover, the inhibition of metastasis in the series with MDA-MB-231-Luc cells is ~ 80%. The “secreted IL-6 and IL-8, TNFα and chemokine CXCL1” value with MDA-MB-231 cells is “dose-dependent reduction”.
